Results reported in patent US8680290B2, “Isoxazoline derivatives and their use as herbicides” (Syngenta Limited, priority 2004, dated 2014).

Assays:
[1] = test system: Monocotyledonous and dicotyledonous test plants; experiment: Example B1 herbicidal action, application post-emergence (Table B1a); format: in vivo; conditions: 250 g/ha, evaluated after 3 weeks, scale 0-10
Experimental: Monocotyledonous and dicotyledonous test plants were sown in seed trays in standard soil. Immediately after sowing (pre-emergence) or after 8 to 9 days cultivation (post-emergence), the test compounds were applied by spraying in the form of an aqueous solution derived from the formulation of the technical active ingredient in 0.6 ml acetone and 45 ml formulation solution containing 10.6% Emulsogen EL (CAS RN 61791-12-6), 42.2% N-methylpyrrolidone, 42.2% dipropylene glycol monomethyl ether (CAS RN 34590-94-8) and 0.2% X-77 (CAS RN 11097-66-8). The test plants were then grown in a greenhouse under optimum conditions. After a test duration of 3 weeks (post-emergence) or 4 weeks (pre-emergence), the test was evaluated (10=total damage to plant, 0=no damage to plant).

[2] = test system: Monocotyledonous and dicotyledonous test plants; experiment: Example B1 herbicidal action, application pre-emergence (Table B1b); format: in vivo; conditions: 250 g/ha, evaluated after 4 weeks
Outline: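 Visual damage rating, 10 = plant dead and 0 = unharmed, taken at 3 weeks for post-emergence and 4 weeks for pre-emergence treatment. Application by spray of formulated aqueous solution either immediately after sowing or at 8–9 days' growth, with mono- and dicot plants kept in a greenhouse.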

Structure (SMILES)	herbicidal damage rating, Abutilon [1]	herbicidal damage rating, Amaranthus [1]	herbicidal damage rating, Digitaria [1]	herbicidal damage rating, Panicum [1]	herbicidal damage rating, Setaria [1]	herbicidal damage rating, Sida [1]	herbicidal action (damage rating 0-10), Amaranthus [2]	herbicidal action (damage rating 0-10), Digitaria [2]	herbicidal action (damage rating 0-10), Panicum [2]	herbicidal action (damage rating 0-10), Setaria [2]	herbicidal action (damage rating 0-10), Sida [2]
Cc1ccc(F)c(C(Br)S(=O)(=O)C2=NOC(C)(C)C2)c1F (stereo not shown) [1.102]	0	0	8	5	4	2	8	10	10	9	2
COc1ccccc1C(F)S(=O)(=O)C1=NOC(C)(C)C1 (stereo not shown) [1.104]	3	0	8	7	7	2	0	9	10	8	3
Cc1ccc(F)c(C(F)S(=O)(=O)C2=NOC(C)(C)C2)c1F (stereo not shown) [1.105]	2	5	8	5	4	7	10	8	10	10	7
COc1ccccc1C(F)(F)S(=O)(=O)C1=NOC(C)(C)C1 [1.107]	4	0	8	7	5	5	9	7	9	10	0
Cc1ccc(F)c(C(F)(F)S(=O)(=O)C2=NOC(C)(C)C2)c1F [1.108]	7	8	8	5	5	8	10	10	10	10	9
CC1(C)CC(S(=O)(=O)C(F)(F)c2cc(F)cc3c2OCOC3)=NO1 [1.109]	6	5	6	5	3	2	10	10	10	9	0
CC1(C)CC(S(=O)(=O)C(F)(F)c2cc(F)ccc2F)=NO1 [1.114]	3	3	8	3	8	2	10	10	10	10	9
CC1(C)CC(S(=O)(=O)C(F)(F)c2cc(F)cc(F)c2)=NO1 [1.115]	2	5	8	8	7	0	10	10	10	10	8
CC1(C)CC(S(=O)(=O)C(F)(F)c2cccc(F)c2F)=NO1 [1.116]	5	5	8	7	7	0	10	10	10	10	7
CC1(C)CC(S(=O)(=O)C(F)(F)c2ccccc2-c2ccccc2)=NO1 [1.117]	4	7	7	5	6	6	9	10	10	8	4
CC1(C)CC(S(=O)(=O)C(F)(F)c2ccc(F)cc2F)=NO1 [1.118]	5	3	8	5	7	3	10	10	10	10	8
CCOC(=O)c1ccc(C(F)(F)S(=O)(=O)C2=NOC(C)(C)C2)c(F)c1 [1.120]	7	0	8	3	4	0	8	6	8	0	5
CC1(C)CC(S(=O)(=O)C(F)(Cl)c2cc(F)cc(F)c2)=NO1 (stereo not shown) [1.125]	0	0	8	7	5	3	10	10	10	10	7
CC1(C)CC(S(=O)(=O)C(F)(Cl)c2cc(F)ccc2F)=NO1 (stereo not shown) [1.126]	3	0	8	5	5	5	10	10	10	10	8
CC1(C)CC(S(=O)(=O)C(Br)c2cccc(F)c2F)=NO1 (stereo not shown) [1.132]	3	3	8	8	5	0	10	10	10	10	4
CC1(C)CC(S(=O)(=O)C(F)(Cl)c2ccc(F)cc2F)=NO1 (stereo not shown) [1.133]	0	5	8	7	5	4	10	10	10	10	6
CC1(C)CC(S(=O)(=O)C(Cl)c2ccccc2OC(F)(F)F)=NO1 (stereo not shown) [1.143]	3	7	7	7	6	2	7	10	10	10	7
